# Values quoted from earlier work in patent US20190008969A1, “COMPOSITIONS FOR DRUG DELIVERY” (Tioga Research, Inc., priority 2017, published 2019).
# Conditions: spray format at 0.25 wt %
smiles,measurement,value
"C[C@@H]1C[C@H]2[C@@H]3CCC4=CC(=O)C=C[C@]4(C)[C@@]3(F)[C@@H](O)C[C@]2(C)[C@H]1C(=O)CO [desoximetasone, (8S,9S,10S,11S,13S,14S,16R,17S)-9-fluoro-11-hydroxy-17-(2-hydroxyacetyl)-10,13,16-trirmethyl-7,8,11,12,14,15,16,17-octahydro-6H-cyclopenta[a]phenanthren-3-one]",Efficacy in treating psoriasis,efficacious
same,Safety in treating psoriasis,safe
